Laboratory results published in patent US9688624B2, “DP2 antagonist and uses thereof” (Brickell Biotech, Inc., priority 2010, dated 2017).
Counter-ions that a name gives are not always drawn. Like-named read-outs stand apart in the source and are kept apart here.

Columns and labels:
rat DP2 = rat DP2 (Rattus norvegicus (Rat), UniProt Q6XKD3); experiment: In vitro DP2/CRTH2 radioligand ([3H]PGD2) membrane binding assay; settings: average
Protocol: (§1) Example 15: In Vitro DP2/CRTH2 Binding Assay
(§2) The ability of Compound 1 to bind to the human DP2 receptor was assessed via a radioligand binding assay using [^3H]PGD2. HEK293 cells stably expressing recombinant human DP2 are resuspended in 10 mM Hepes, 7.4 containing 1 mM DTT, lysed and centrifuged at 75,000×g to pellet the membranes. The membranes are resuspended in 10 mM Hepes, 7.4 containing 1 mM DTT and 10% glycerol to approximately 5 mg protein/ml. Membranes (2-10 μg protein/well) are incubated in 96-well plates with 1 nM [^3H]PGD2 and Compound 1 in Assay Buffer (50 mM Hepes, 10 mM MnCl2, 1 mM EDTA, plus or minus 0.2% human serum albumin, pH 7.4) for 60 minutes at room temperature. The reactions are terminated by rapid filtration through Whatman GF/C glass fibre filter plates. The filter plates were pre-soaked in 0.33% polythylenimine for 30 minutes at room temperature then washed in Wash Buffer (50 mM Hepes, 0.5 M NaCl pH 7.4) prior to harvesting. After harvesting, the filter plates are washed 3 times with 1 ml cold Wash Buffer then dried. Scintillant is then added to the plates and the radioactivity retained on the filters is determined on a Packard TopCount (Perkin Elmer). Specific binding is determined as total radioactive binding minus non-specific binding in the presence of 10 μM PGD2. IC50s were determined using GraphPad prism analysis of drug titration curves. Mouse, rat and guinea pig DP2 receptors were also investigated.
(§3) The binding potency of Compound 1 is only slightly shifted in the presence of species-specific serum albumin.

mouse DP2 = mouse DP2 (Mus musculus (Mouse), UniProt Q9Z2J6); experiment: as above; settings: average
mouse DP2, sequence (Q9Z2J6 whole entry): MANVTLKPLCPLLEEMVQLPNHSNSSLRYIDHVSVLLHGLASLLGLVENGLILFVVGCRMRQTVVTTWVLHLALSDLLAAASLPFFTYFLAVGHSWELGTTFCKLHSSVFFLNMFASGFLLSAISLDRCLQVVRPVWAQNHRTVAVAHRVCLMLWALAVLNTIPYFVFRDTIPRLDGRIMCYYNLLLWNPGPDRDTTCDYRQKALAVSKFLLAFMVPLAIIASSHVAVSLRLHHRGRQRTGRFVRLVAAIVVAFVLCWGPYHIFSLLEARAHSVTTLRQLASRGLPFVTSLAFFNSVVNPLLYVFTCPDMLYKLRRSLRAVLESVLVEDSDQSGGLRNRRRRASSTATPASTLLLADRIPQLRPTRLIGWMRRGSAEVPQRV
Protocol: as §1, §2, §3

CYP3A4 = CYP3A4 (Homo sapiens (Human), UniProt P08684); settings: human hepatocytes, 10 μM
[1] = Plasma exposure in satellite group of mouse allergic rhinitis model; assay type: in vivo; settings: Compound 2 10 mg/kg PO
Protocol: Compound 2 was evaluated in a mouse model of ovalbumin (OVA)-induced allergic rhinitis in which nasal ovalbumin challenges to OVA-primed mice elicits an increase in sneezing and nasal rubs (Methods were adapted from those detailed in Nakaya, M., et al. 2006, Laboratory Investigation, 86:917-926). OVA-primed mice received an intranasal challenge of OVA daily for 5 consecutive days. The number of sneezes and nasal rubs were counted over an 8 minute recording session on days 1, 3 and 5 immediately following OVA challenge. OVA caused a significant increase in both sneezing behavior and nasal rubs when compared to intranasal phosphate buffered saline (PBS) challenge. […] The plasma exposure for Compound 1 measured in a satellite group was 1360 nM, 460 nM, 210 nM and 90 nM for time points 1, 2, 4, and 6 hr post-dose, respectively.

[2] = Phase I single ascending dose study in humans, pharmacokinetics; assay type: in vivo, human; settings: for half-life / AUC(0-inf) / AUC(0-t) / Cmax / Tmax / Vd/F: human, plasma; for Vd/F: read-out: Vz/F
Text: Example 22: Phase I Study in Humans
This is a phase 1, Single-Center, Double-Blind Study of Compound 2 in healthy volunteers.
(§4) To assess: (1) the safety and tolerability of single and multiple doses of Compound 2 following oral administration; and (2) the pharmacokinetics (PK) of Compound 2 after single and multiple doses; and (3) the effects of the pharmacodynamic (PD) responses in healthy subjects to Compound 2 as measured by a PGD2-induced eosinophil shape change assay (ESC).
(§5) The Single Ascending Dose (SAD) study will include 6 cohorts with 8 subjects each, 6 receiving the active treatment and 2 receiving the placebo. The SAD study will explore doses of 5, 15, 50, 150, 300 and 500 mg/day. Compound 2 (Pattern 1) is administered as API in a Capsule, prepared on site at the clinical pharmacy (see Example 10). Safety monitoring will include: a “how do you feel” (HDYF) question, adverse events reporting, physical examinations, vital signs, ECG's, and a biological assessment (clinical chemistry, hematology and urinalysis). The decision to escalate to the next dose level will be based on the results of medical monitoring, and a blinded interim analysis of pharmacokinetic parameters (AUC, Cmax) and pharmacodynamic responses. Doses may be adjusted based on the occurrence of adverse events. Subjects will be followed on site for 72 hours after dose administration.
The plasma concentrations of Compound 1 are determined by LC-MS/MS, giving a detection limit of 0.25 ng*mL^−1.
Pharmacokinetic measurements of Compound 2 includes measurement of the protonated form (Compound 1).

[3] = Phase I single ascending dose study, safety and tolerability; assay type: in vivo, human; settings: humans, capsule, 5 to 500 mg single doses
Text: as §4, §5

[4] = single oral 5 mg capsule, healthy humans, mean
[5] = single oral 15 mg capsule, healthy humans, mean
[6] = single oral 50 mg capsule, healthy humans, mean
[7] = single oral 150 mg capsule, healthy humans, mean
[8] = single oral 300 mg capsule, healthy humans, mean
[9] = single oral 500 mg capsule, healthy humans, mean

rat DP2, sequence (Q6XKD3 whole entry): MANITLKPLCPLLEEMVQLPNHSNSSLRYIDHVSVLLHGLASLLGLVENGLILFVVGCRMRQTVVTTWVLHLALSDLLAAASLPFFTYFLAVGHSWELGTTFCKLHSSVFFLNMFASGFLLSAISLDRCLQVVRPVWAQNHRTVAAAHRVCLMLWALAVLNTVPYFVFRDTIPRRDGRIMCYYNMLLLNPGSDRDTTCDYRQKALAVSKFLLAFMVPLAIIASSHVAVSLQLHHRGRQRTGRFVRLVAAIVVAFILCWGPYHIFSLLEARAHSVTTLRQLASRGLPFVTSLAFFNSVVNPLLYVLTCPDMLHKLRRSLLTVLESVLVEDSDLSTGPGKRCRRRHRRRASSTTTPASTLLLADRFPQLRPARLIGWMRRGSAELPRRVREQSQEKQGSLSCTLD

Compound `COc1ccc(CC(=O)O)cc1Oc1ccc(NC(=O)C(C)(C)C)cc1CSC(C)(C)C` [Compound 1, 2-(3-(2-((tert-butylthio)methyl)-4-(2,2-dimethyl-propionylamino)phenoxy)-4-methoxyphenyl)acetic acid] has an IC50 (rat DP2; 0.2% species-specific albumin, read-out: IC50, radioligand membrane binding on rat DP2) of 10.4 nM, an IC50 (rat DP2; without serum albumin, read-out: IC50, inhibition of radiolabeled PGD2 binding to rat DP2) of 7 nM and an IC50 (mouse DP2; 0.2% species-specific albumin, read-out: IC50, radioligand membrane binding on mouse DP2) of 11.4 nM. The IC50 (mouse DP2; without serum albumin, read-out: IC50, inhibition of radiolabeled PGD2 binding to mouse DP2) was 9.7 nM, the “induction of CYP3A4” value (CYP3A4) was “not a strong inducer” and the concentration at 1 h ([1]; 1 hr post-dose) was 1360 nM. It also gave a concentration at 2 h ([1]; 2 hr post-dose, read-out: plasma exposure for Compound 1) of 460 nM, a concentration at 4 h ([1]; 4 hr post-dose, read-out: plasma exposure for Compound 1) of 210 nM and a concentration at 6 h ([1]; 6 hr post-dose, read-out: plasma exposure for Compound 1) of 90 nM.

In the case of `COc1ccc(CC(=O)O)cc1Oc1ccc(NC(=O)C(C)(C)C)cc1CSC(C)(C)C` [Compound 2, 2-(3-(2-((tert-butylthio)methyl)-4-(2,2-dimethyl-propionylamino)phenoxy)-4-methoxyphenyl)acetic acid, sodium salt], the half-life ([2]; oral, humans, 150 and 500 mg dose, read-out: long elim. t1/2) is reported as ≤ 18 h, the half-life ([2]; oral, humans, SAD study, read-out: half life, increases with dose) is reported as 1.2 to 7 h and the AUC(0-inf) [2, 4] is reported as 6.2 ng·h/mL. For the same compound, the AUC(0-t) [2, 4] was 4.85 ng·h/mL, the Cmax [2, 4] was 2.69 ng/mL and the Tmax [2, 4] was 0.542 h. For the same compound, the Vd/F [2, 4] was 1470 L, the half-life ([2]; single oral 5 mg capsule, healthy humans, mean, read-out: t1/2 (converted)) was 1.22 h and the AUC(0-inf) [2, 5] was 17.5 ng·h/mL. It also gave an AUC(0-t) [2, 5] of 17 ng·h/mL, a Cmax [2, 5] of 8.31 ng/mL and a Tmax [2, 5] of 0.625 h. For the same compound, the Vd/F [2, 5] was 1760 L, the half-life ([2]; single oral 15 mg capsule, healthy humans, mean, read-out: t1/2 (converted)) was 1.23 h and the Cmax [2, 6] was 93.4 ng/mL. For the same compound, the Tmax [2, 6] was 1.2 h, the Vd/F [2, 6] was 1500 L and the half-life ([2]; single oral 50 mg capsule, healthy humans, mean, read-out: t1/2 (converted)) was 1.49 h. For the same compound, the AUC(0-inf) [2, 7] was 3460 ng·h/mL, the AUC(0-t) [2, 7] was 3450 ng·h/mL and the Cmax [2, 7] was 4630 ng/mL. The Tmax [2, 7] was 0.542 h, the Vd/F [2, 7] was 1410 L and the half-life ([2]; single oral 150 mg capsule, healthy humans, mean, read-out: t1/2 (converted)) was 7.86 h. The AUC(0-inf) [2, 8] was 6980 ng·h/mL, the AUC(0-t) [2, 8] was 6970 ng·h/mL and the Cmax [2, 8] was 6690 ng/mL. It also gave a Tmax [2, 8] of 0.92 h, a Vd/F [2, 8] of 351 L and a half-life ([2]; single oral 300 mg capsule, healthy humans, mean, read-out: t1/2 (converted)) of 6.32 h. It also gave an AUC(0-inf) [2, 9] of 26000 ng·h/mL, an AUC(0-t) [2, 9] of 26000 ng·h/mL and a Cmax [2, 9] of 25700 ng/mL. For the same compound, the Tmax [2, 9] was 0.583 h, the Vd/F [2, 9] was 501 L and the half-life ([2]; single oral 500 mg capsule, healthy humans, mean, read-out: t1/2 (converted)) was 14.1 h. The CL/F [2, 4] was 886 L/h, the λz [2, 4] was 0.598 h⁻¹ and the CL/F [2, 5] was 982 L/h. It also gave a λz [2, 5] of 0.574 h⁻¹, a CL/F [2, 6] of 643 L/h and a λz [2, 6] of 0.485 h⁻¹. The CL/F [2, 7] was 161 L/h, the λz [2, 7] was 0.130 h⁻¹ and the CL/F [2, 8] was 53.4 L/h. The λz [2, 8] was 0.19 h⁻¹, the CL/F [2, 9] was 21.8 L/h and the λz [2, 9] was 0.0904 h⁻¹. The tolerability [3] was “well tolerated”.
